Measurements: US6737383B1, “Herbicidal oxadiazolidines” (priority 1999, dated 2004)

Assays:
sourgrass = experiment: Test D sourgrass; type: in vivo, Trichachne insularis; settings: Preemergence, 0 to 100 scale
Text: Seeds, tubers, or plant parts of Alexandergrass (Brachiaria plantaginea), bermuda-grass (Cynodon dactylon), common pursiane (Portulaca oleracea), common ragweed (Ambrosia elatior), common groundsel (Senecio vulgaris), dallisgrass (Paspalum dilatatum), goosegrass (Eleusine indica), guineagrass (Panicum maximum), itchgrass (Rottboellia exaltata), Johnson grass (Sorghum halepense), large crabgrass (Digitaria sanguinalis), pitted morningglory (Ipomoea lacunosa), purple nutsedge (Cyperus rotundus), sandbur (Cenchrus echinatus), sourgrass (Trichachne insularis), Spanishneedles (Bidens bipinnata), surinam grass (Brachiaria decumbens) and tall mallow (Malva sylvestris) were planted into greenhouse pots of flats containing greenhouse planting medium. Plant species were grown in separate pots or individual compartments. Preemergence applications were made within one day of planting the seed or plant part.
Test chemicals were formulated in a non-phytotoxic solvent mixture which included a surfactant and applied preemergence to the surface of the pot containing seeds in a sandy loam soil. Untreated control pots and treated pots were placed in the greenhouse for growth and visually evaluated for injury 14 to 21 days after herbicide application. Plant response ratings, summarized in Table C, are based on a 0 to 100 scale where 0 is no injury and 100 is complete control. A dash (−) response means no test result.

large crabgrass = experiment: Test C postemergence large crabgrass; type: in vivo, Digitaria sanguinalis; settings: 0 to 100 scale, 0 no effect, 100 complete control
How it was run: (§1)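 Compounds in a non-phytotoxic solvent with surfactant were sprayed postemergence on greenhouse-grown plants in 60:40 sandy loam/potting mix. After about 14 to 21 days, visual ratings against untreated controls on a 0 (no effect) to 100 (complete control) scale.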

cotton = experiment: Test C postemergence cotton; type: in vivo, Gossypium hirsutum; settings: 0 to 100 scale, 0 no effect, 100 complete control
How it was run: as §1

ladysthumb smartweed = experiment: Test C postemergence ladysthumb smartweed; type: in vivo, Polygonum persicaria; settings: 0 to 100 scale, 0 no effect, 100 complete control
How it was run: as §1

sunflower = experiment: Test E sunflower; type: in vivo, Helianthus annuus; settings: Preemergence
Italian ryegrass = experiment: Test E Italian ryegrass; type: in vivo, Lolium multiflorum; settings: Postemergence
How it was run: (§2)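 Compound formulated with surfactant in a non-phytotoxic solvent (postemergence: young 1- to 4-leaf plants); held in greenhouse approx. 21–28 days; visual assessment against untreated plants.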

wild mustard = experiment: Test E wild mustard; type: in vivo, Sinapis arvensis; settings: Postemergence
Method: […] A mixture of sandy loam soil and greenhouse potting mix in a 60:40 ratio was used for the postemergence test.
(§3) Plantings of these crops and weed species were adjusted to produce plants of appropriate size for the postemergence test. All plant species were grown using normal greenhouse practices. Crop and weed species include annual bluegrass (Poa annua), blackgrass (Alopecurus myosuroides), black nightshade (Solanum nigra), chickweed (Stellaria media), common poppy (Papaver rhoeas), deadnettle (Lamium amplexicaule), downy brome (Bromus tectorum), field violet (Viola arvensis), galium (Galium aparine), green foxtail (Setaria viridis), Italian ryegrass (Lolium multiflorum), jointed goatgrass (Aegilops cylindrica), kochia (Kochia scoparia), lambsquarters (Chenopodium album), littleseed canarygrass (Phalaris minor), rape (Brassica napus), redroot pigweed (Amaranthus retroflexus), Russian thistle (Salsola kali), scentless chamomile (Matricaria inodora), spring barley (Hordeum vulgare), sugar beet (Beta vulgaris), sunflower (Helianthus annuus), ivyleaf speedwell (Veronica hederaefolia), spring wheat (Triticum aestivum), winter wheat (Triticum aestivum), wild buckwheat (Polygonum convolvulus), wild mustard (Sinapis arvensis), wild oat (Avena fatua), windgrass (Apera spica-venti) and winter barley (Hordeum vulgare).
(§4) Treated plants and untreated controls were maintained in a greenhouse for approximately 21 to 28 days, after which all treated plants were compared to untreated controls and visually evaluated. […] A dash response (-) means no test result.

jointed goatgrass = experiment: Test E jointed goatgrass; type: in vivo, Aegilops cylindrica; settings: Preemergence
littleseed canarygrass [1] = experiment: Test E littleseed canarygrass; type: in vivo, Phalaris minor; settings: Preemergence
spring wheat = experiment: Test E spring wheat; type: in vivo, Triticum aestivum; settings: Postemergence
Method: Compounds evaluated in this test were formulated in a non-phytotoxic solvent mixture which included a surfactant and applied to plants that were in the 1- to 4-leaf stage (postemergence application). A mixture of sandy loam soil and greenhouse potting mix in a 60:40 ratio was used for the postemergence test.
as §3, §4

littleseed canarygrass [2] = experiment: Test E littleseed canarygrass; type: in vivo, Phalaris minor; settings: Postemergence
How it was run: as §2

chickweed = experiment: Test E chickweed; type: in vivo, Stellaria media; settings: Preemergence
deadnettle = experiment: Test E deadnettle; type: in vivo, Lamium amplexicaule; settings: Postemergence
How it was run: as §2

black nightshade = experiment: Test E black nightshade; type: in vivo, Solanum nigra; settings: Postemergence
How it was run: as §2

[3] = Rate 125 g/ha, 0 to 100 scale (0 no effect, 100 complete control)
[4] = Rate 500 g/ha, 0 to 100 scale where 0 is no effect and 100 is complete control
[5] = Rate 250 g/ha, 0 to 100 scale (0 no effect, 100 complete control)
[6] = Rate 500 g/ha, 0 to 100 scale, 0 no effect, 100 complete control

CCc1ccccc1-n1c(=O)on(C(=O)N(c2ccc(F)cc2)C(C)C)c1=O [Compound 34]
Plant response rating, Sourgrass (sourgrass; Rate 32 g/ha, 0 no injury, 100 complete control): 98 | Sourgrass plant response rating (sourgrass; Rate 64 g/ha, 0 no injury, 100 complete control): 100 | Sourgrass plant response rating (sourgrass; Rate 125 g/ha, 0 no injury, 100 complete control): 100 | Plant response rating, Sourgrass (sourgrass; Rate 250 g/ha): 100

CC(C)N(C(=O)n1oc(=O)n(Cc2ccccc2)c1=O)c1ccccc1 [Compound 94]
Plant response rating Large crabgrass (large crabgrass; Rate 140 g/ha): 0 | Plant response rating Large crabgrass (large crabgrass; Rate 280 g/ha): 0 | Plant response rating Large crabgrass (large crabgrass; Rate 560 g/ha): 70 | Plant response rating Cotton (cotton; Rate 140 g/ha): 20 | Plant response rating Cotton (cotton; Rate 280 g/ha): 70 | Plant response rating Cotton (cotton; Rate 560 g/ha): 70 | Plant response rating Cotton (cotton; Rate 1120 g/ha): 80 | Plant response rating Ladysthumb (ladysthumb smartweed; Rate 140 g/ha): 5 | Plant response rating Ladysthumb (ladysthumb smartweed; Rate 280 g/ha): 10 | Plant response rating Ladysthumb (ladysthumb smartweed; Rate 560 g/ha): 85 | Plant response rating Ladysthumb (ladysthumb smartweed; Rate 1120 g/ha): 90

CC(C)N(C(=O)n1oc(=O)n(C(C)C)c1=O)c1ccc(F)cc1F [Compound 109]
Plant response rating, Sunflower (sunflower; [3]): 0 | Plant response rating, Sunflower (sunflower; Rate 250 g/ha, 0 to 100 scale): 10 | Plant response rating, Sunflower (sunflower; [4]): 5 | Plant response rating Large crabgrass (large crabgrass; Rate 140 g/ha): 10 | Plant response rating Large crabgrass (large crabgrass; Rate 280 g/ha): 60 | Plant response rating Large crabgrass (large crabgrass; Rate 560 g/ha): 90 | Plant response rating Large crabgrass (large crabgrass; Rate 1120 g/ha): 90 | Plant response rating, I. Ryegrass (Italian ryegrass; Rate 125 g/ha, 0 to 100 scale): 10 | Plant response rating, I. Ryegrass (Italian ryegrass; [5]): 10 | Plant response rating, I. Ryegrass (Italian ryegrass; [6]): 65 | Plant response rating, Wild mustard (wild mustard; Rate 125 g/ha, 0 to 100 scale): 40 | Plant response rating, Wild mustard (wild mustard; [5]): 50 | Plant response rating, Wild mustard (wild mustard; [6]): 20 | Plant response rating, Jointed goatgra (jointed goatgrass; [3]): 20 | Plant response rating, Jointed goatgra (jointed goatgrass; Rate 250 g/ha, 0 to 100 scale): 65 | Plant response rating, Jointed goatgra (jointed goatgrass; [4]): 70 | Plant response rating, LS canarygrass (littleseed canarygrass [1]; [3]): 50 | Plant response rating, LS canarygrass (littleseed canarygrass [1]; Rate 250 g/ha, 0 to 100 scale): 60 | Plant response rating, LS canarygrass (littleseed canarygrass [1]; [4]): 50 | Plant response rating, Spring Wheat (spring wheat; Rate 125 g/ha, 0 to 100 scale): 30 | Plant response rating, Spring Wheat (spring wheat; [5]): 20 | Plant response rating, Spring Wheat (spring wheat; [6]): 10 | Plant response rating, LS canarygrass (littleseed canarygrass [2]; Rate 125 g/ha, 0 to 100 scale): 25 | Plant response rating, LS canarygrass (littleseed canarygrass [2]; [5]): 50 | Plant response rating, LS canarygrass (littleseed canarygrass [2]; [6]): 65 | Plant response rating Cotton (cotton; Rate 140 g/ha): 10 | Plant response rating Cotton (cotton; Rate 280 g/ha): 50 | Plant response rating Cotton (cotton; Rate 560 g/ha): 70 | Plant response rating Cotton (cotton; Rate 1120 g/ha): 70 | Plant response rating, Chickweed (chickweed; [3]): 40 | Plant response rating, Chickweed (chickweed; [4]): 100 | Plant response rating, Deadnettle (deadnettle; Rate 125 g/ha, 0 to 100 scale): 0 | Plant response rating, Deadnettle (deadnettle; [5]): 30 | Plant response rating, Deadnettle (deadnettle; [6]): 30 | Plant response rating Ladysthumb (ladysthumb smartweed; Rate 280 g/ha): 10 | Plant response rating Ladysthumb (ladysthumb smartweed; Rate 560 g/ha): 30 | Plant response rating Ladysthumb (ladysthumb smartweed; Rate 1120 g/ha): 95 | Plant response rating, Blk nightshade (black nightshade; Rate 125 g/ha, 0 to 100 scale): 40 | Plant response rating, Blk nightshade (black nightshade; [5]): 40 | Plant response rating, Blk nightshade (black nightshade; [6]): 60
